The results in this text go back to PMC12413083, “Secondary metabolites isolated from Fernandoa adenophylla (Wall. ex G.Don) steenis as multitarget inhibitors of cholinesterases for the treatment of Alzheimer’s Disease, followed by molecular docking studies” (PLOS One, 2025).

In assay [1] the target is T1, Electrophorus electricus acetylcholinesterase (eeAChE) (Electrophorus electricus, UniProt O42275).
T1 construct: purchased Sigma-Aldrich C3389
The assay is described as follows: biochemical. As to conditions: for Selectivity Index (SI): SI = IC50 of BChE/IC50 of AChE. As for the experimental part:
(§1) Enzymes from Electrophorus electricus (eeAChE) (Sigma-Aldrich, Cat. No. C3389) and equine serum (Equus caballus) BuChE (eqBuChE) […]. Stock solutions of the test compounds were prepared in potassium phosphate buffer (0.1 M, pH 8.0). The reaction mixture consisted of Ellman’s reagent (5,5′-dithiobis (2-nitrobenzoic acid), DTNB), enzyme (0.03 U/mL of eeAChE or eqBuChE), and the test compound. Pre-incubation was performed at 30°C for 10 minutes, followed by the addition of 1 mM acetylthiocholine iodide (ATCI) or butyrylthiocholine iodide (BTCI) as substrates. The reaction mixture was further incubated for 15 minutes. […] All assays were conducted in triplicate. IC50 values were calculated by nonlinear regression of compound concentration versus percentage inhibition.
(§2) All experiments were performed in triplicate, and the results are expressed as SEM. IC50 values were determined using nonlinear regression analysis (GraphPad Prism). All statistical analyses were performed using GraphPad Prism version 9.5.1 (GraphPad Software, San Diego, CA, USA).

Assay [2] deals with T2, equine serum butyrylcholinesterase (eqBuChE) (Equus caballus, UniProt P81908).
T2 construct: equine serum (Equus caballus) BuChE (eqBuChE); purchased Sigma-Aldrich C3389; host or cells: equine serum
T2 sequence (P81908 whole entry): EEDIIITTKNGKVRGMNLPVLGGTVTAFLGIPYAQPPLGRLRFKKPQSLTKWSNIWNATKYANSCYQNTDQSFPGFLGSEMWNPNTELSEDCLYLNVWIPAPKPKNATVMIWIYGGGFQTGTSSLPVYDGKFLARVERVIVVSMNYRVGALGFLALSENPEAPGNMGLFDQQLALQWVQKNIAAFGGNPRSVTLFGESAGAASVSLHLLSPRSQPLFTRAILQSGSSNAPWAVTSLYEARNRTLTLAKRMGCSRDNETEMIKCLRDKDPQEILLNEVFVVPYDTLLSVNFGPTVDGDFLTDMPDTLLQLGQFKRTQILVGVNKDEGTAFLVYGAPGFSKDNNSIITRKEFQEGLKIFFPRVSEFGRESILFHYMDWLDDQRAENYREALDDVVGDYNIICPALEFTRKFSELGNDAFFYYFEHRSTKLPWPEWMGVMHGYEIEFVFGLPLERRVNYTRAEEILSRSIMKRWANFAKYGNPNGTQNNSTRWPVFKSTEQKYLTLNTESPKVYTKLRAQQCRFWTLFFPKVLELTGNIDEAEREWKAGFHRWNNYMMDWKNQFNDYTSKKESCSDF
Nature of the assay: biochemical. Here is the method: as §1, §2

Setting [3] is: Ellman's method, mean ± SEM, n = 3, read-out: IC50 (μM) ± SEM (eeAChE).
Where [4] appears, read: Ellman's method, mean ± SEM, n = 3, read-out: IC50 (μM) ± SEM eqBuChE.

Read-outs that look alike come from different tables or passages of the source.

T1 sequence (O42275 24-633): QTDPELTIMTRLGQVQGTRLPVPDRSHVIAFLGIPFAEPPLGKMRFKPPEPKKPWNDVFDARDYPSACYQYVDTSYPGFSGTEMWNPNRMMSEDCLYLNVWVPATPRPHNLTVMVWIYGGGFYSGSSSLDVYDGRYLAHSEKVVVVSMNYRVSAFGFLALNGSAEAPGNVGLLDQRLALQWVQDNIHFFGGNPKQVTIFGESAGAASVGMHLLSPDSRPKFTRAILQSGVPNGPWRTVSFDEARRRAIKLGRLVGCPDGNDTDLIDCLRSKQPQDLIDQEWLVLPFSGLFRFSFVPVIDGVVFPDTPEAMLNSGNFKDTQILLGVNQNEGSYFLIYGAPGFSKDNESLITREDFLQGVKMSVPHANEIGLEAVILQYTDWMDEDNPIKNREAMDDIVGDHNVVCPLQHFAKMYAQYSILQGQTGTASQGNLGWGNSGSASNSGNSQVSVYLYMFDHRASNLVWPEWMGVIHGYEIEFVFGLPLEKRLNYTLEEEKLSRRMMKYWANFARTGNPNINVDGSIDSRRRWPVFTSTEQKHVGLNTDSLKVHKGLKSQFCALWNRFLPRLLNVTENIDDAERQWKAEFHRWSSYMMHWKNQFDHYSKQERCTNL

In the case of `CC1(C)CCC2=C(O1)C(=O)c1ccccc1C2=O` [α-Lapachone (2), α-Lapachone], the values for the 50% inhibitory concentration (IC50) in assay [1] (setting [3]) and in assay [2] (setting [4]) were 11 ± 0.97 µM and 39.1 ± 0.97 µM, respectively. Besides, the “Selectivity Index (SI)” value in assay [1] was found to be 3.6.
In the case of `CC(C)=C(C)C1CC2(C)OC3=C(C(=O)c4ccccc4C3=O)C3C2C12C(=O)c1ccccc1C3(O)C2=O` (stereo not drawn) [Peshawaraquinone (3), Peshawaraquinone], the results for the IC50 in assay [1] (setting [3]) and in assay [2] (setting [4]) were 0.9 ± 0.04 µM and 8.39 ± 0.14 µM, respectively. Moreover, in assay [1], the “Selectivity Index (SI)” value worked out at 9.3.
As to `CC(C)=CCC1=C(O)C(=O)c2ccccc2C1=O` [Lapachol (1), Lapachol], in assay [1], the IC50 worked out at 5.04 ± 0.24 µM and the “Selectivity Index (SI)” value was 13.6. The compound further showed an IC50 in assay [2] of 68.3 ± 1.06 µM.
In the case of `CC1(C)C=CC2=C(O1)C(=O)c1ccccc1C2=O` [Dehydro-α-lapachone (4), Dehydro-α-lapachone], the IC50 was 2.64 ± 0.08 µM in assay [1] (setting [3]) and 55.6 ± 1.41 µM in assay [2] (setting [4]). In assay [1], the “Selectivity Index (SI)” value stood at 21.1.
Turning to `COC(=O)C1(O)c2ccccc2C(=O)C1(O)CC=C(C)C` (stereo not drawn) [Indanone derivative (5)], in assay [1], the IC50 turned out to be 53.2 ± 1.29 µM and the “Selectivity Index (SI)” value worked out at 0.45. The compound further yielded a half-inhibitory concentration (IC50) in assay [2] of 24.2 ± 1.04 µM.
